The target of test [1] is T1, human DLK (Homo sapiens, UniProt Q12852).
T1 sequence (Q12852 1-859): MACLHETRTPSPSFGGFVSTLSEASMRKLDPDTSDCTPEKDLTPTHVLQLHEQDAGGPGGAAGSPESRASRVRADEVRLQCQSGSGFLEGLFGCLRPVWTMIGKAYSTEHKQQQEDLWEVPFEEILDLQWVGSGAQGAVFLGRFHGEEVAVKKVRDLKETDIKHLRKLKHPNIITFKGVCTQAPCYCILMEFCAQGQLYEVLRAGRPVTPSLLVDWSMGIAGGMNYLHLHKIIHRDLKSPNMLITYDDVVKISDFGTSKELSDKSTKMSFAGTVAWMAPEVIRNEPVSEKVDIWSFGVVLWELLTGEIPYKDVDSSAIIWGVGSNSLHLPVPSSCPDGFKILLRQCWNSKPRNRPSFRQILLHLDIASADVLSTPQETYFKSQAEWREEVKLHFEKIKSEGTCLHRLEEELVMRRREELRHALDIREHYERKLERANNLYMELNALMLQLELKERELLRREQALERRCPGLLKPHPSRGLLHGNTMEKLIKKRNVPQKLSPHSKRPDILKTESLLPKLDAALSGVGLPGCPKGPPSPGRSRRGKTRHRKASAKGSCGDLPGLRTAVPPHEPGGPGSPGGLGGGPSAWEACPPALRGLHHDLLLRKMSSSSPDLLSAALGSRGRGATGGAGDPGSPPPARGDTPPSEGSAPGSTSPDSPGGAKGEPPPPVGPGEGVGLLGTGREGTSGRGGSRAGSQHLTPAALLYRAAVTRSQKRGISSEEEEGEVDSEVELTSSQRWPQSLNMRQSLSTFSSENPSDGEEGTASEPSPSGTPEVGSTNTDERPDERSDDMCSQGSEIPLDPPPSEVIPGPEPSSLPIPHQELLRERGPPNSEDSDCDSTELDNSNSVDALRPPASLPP
Description: Phospho-cJun Cellular Assay. It is filed as cell-based. Also on record: expressed in transfected cells. The note with it: HEK293 cells stably transfected with Dox-inducible human DLK; p-cJun (Ser63); 5 h compound incubation. Here is the method: Phospho-cJun Cellular Assay
HEK293 cells stably transfected with a Dox-inducible human DLK were plated into a 384-well plate in 20 μl (40,000 cells/well) of DMEM medium (without phenol red) containing 10% fetal bovine serum, 1.5 μg/ml doxycycline and 1 μg/ml puromycin. The cells as negative control were grown in the absence of doxycycline. The plate was incubated at 37° C., 5% CO2 for 20 h, before DMSO (control) or compounds diluted in medium were added. The cells were incubated at 37° C. for an additional 5 h, followed by lysis and the addition detection antibodies from p-cJun (Ser63) cellular assay kit (Cisbio) per manufacturer protocol. The standard dose response curves were fitted by Genedata Screener software using the variable-slope model: Signal=Signalnegative control+(SignalDMSO control−Signalnegative control)/(1+(IC50/Dose)̂Hill slope). Only signal and dose in the equation were treated as known values.

The target in test [2] is T1, human DLK. In words: DLK Kd Determinations (KINOMEscan KdELECT, DiscoveRx). Also on record: full length of human DLK (amino acids 1-859); host or cells: transiently transfected HEK293 cells; unpurified extract. The note with it: fusion protein of full length human DLK (amino acids 1-859) and NFkB DNA binding domain; qPCR readout; duplicate. In short, it runs like this: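 Competition binding of full-length human DLK (aa 1-859)-NFkB DBD fusion, DNA-tagged, from HEK293 extracts against an immobilized ligand; 1 h at room temperature, 0.9% DMSO. Bead-bound kinase was quantified by qPCR. Kd came from an 11-point 3-fold series (top 30,000 nM), in duplicate, with Hill slope fixed at −1.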

For 17 compounds, IC50 and Kd results are on record in patent publication US20180057507A1, “INHIBITORS OF DUAL LEUCINE ZIPPER (DLK) KINASE FOR THE TREATMENT OF DISEASE” (Board of Regents, The University of Texas System, priority 2016, published 2018).

For orientation: pIC50 means −log10 of the IC50, conventionally taken in molar units. A lower pIC50 goes with a high IC50. By pKd is commonly meant the negative decadic logarithm of the Kd, by convention in mol/L.

pIC50, pKd: −log10 of the molar value.

In test [1], `CN1CCN(C2C[C@@H]3[C@H](C2)[C@H]3n2cc(-c3cnc(N)c(OC(F)(F)F)c3)nc2CC2CC2)CC1` (single isomer, unassigned) [Example 151b, 5-(2-(cyclopropylmethyl)-1-(3-(4-methylpiperazin-1-yl)bicyclo[3.1.0]hexan-6-yl)-1H-imidazol-4-yl)-3-(trifluoromethoxy)pyridin-2-amine] had a pIC50 of 6.08. The pKd in test [2] was 7.70.
`Nc1ncc(-c2cn([C@H]3[C@@H]4CC(N5CCN(CCF)CC5)C[C@@H]43)c(CC3CC3)n2)cc1OC(F)(F)F` (single isomer, unassigned) [Example 152a, 5-(2-(cyclopropylmethyl)-1-(3-(4-(2-fluoroethyl)piperazin-1-yl)bicyclo[3.1.0]hexan-6-yl)-1H-imidazol-4-yl)-3-(trifluoromethoxy)pyridin-2-amine] showed a pIC50 in test [1] of 5.87. Moreover, the pKd in test [2] is 7.43.
Compound `Nc1ncc(-c2cn([C@H]3[C@@H]4CC(N5CCN(CCF)CC5)C[C@@H]43)c(CC3CC3)n2)cc1OC(F)(F)F` (single isomer, unassigned) [Example 152b, 5-(2-(cyclopropylmethyl)-1-(3-(4-(2-fluoroethyl)piperazin-1-yl)bicyclo[3.1.0]hexan-6-yl)-1H-imidazol-4-yl)-3-(trifluoromethoxy)pyridin-2-amine] showed a pIC50 in test [1] of 5.94. The pKd in test [2] was 7.89.
In test [1], `Nc1ncc(-c2cn([C@H]3[C@@H]4CC(N5CCN(CCF)CC5)C[C@@H]43)c(C3CC3)n2)cc1C(F)(F)F` (single isomer, unassigned) [Example 153a, 5-(2-cyclopropyl-1-(3-(4-(2-fluoroethyl)piperazin-1-yl)bicyclo[3.1.0]hexan-6-yl)-1H-imidazol-4-yl)-3-(trifluoromethyl)pyridin-2-amine] had a pIC50 of 6.05. Moreover, the pKd in test [2] was 7.66.
With `Nc1ncc(-c2cn([C@H]3[C@@H]4CC(N5CCN(CCF)CC5)C[C@@H]43)c(C3CC3)n2)cc1C(F)(F)F` (single isomer, unassigned) [Example 153b, 5-(2-cyclopropyl-1-(3-(4-(2-fluoroethyl)piperazin-1-yl)bicyclo[3.1.0]hexan-6-yl)-1H-imidazol-4-yl)-3-(trifluoromethyl)pyridin-2-amine], the pIC50 in test [1] was 6.09. Also, in test [2], the pKd was 8.05.
As for `Nc1ncc(-c2cn([C@H]3[C@@H]4CC(N5CCN(CCF)CC5)C[C@@H]43)c(C3CC3)n2)cc1OC(F)(F)F` (single isomer, unassigned) [Example 154a, 5-(2-cyclopropyl-1-(3-(4-(2-fluoroethyl)piperazin-1-yl)bicyclo[3.1.0]hexan-6-yl)-1H-imidazol-4-yl)-3-(trifluoromethoxy)pyridin-2-amine], in test [1], the pIC50 is 6.12. Further, in test [2], the pKd is 7.55.
The compound `Nc1ncc(-c2cn([C@H]3[C@@H]4CC(N5CCN(CCF)CC5)C[C@@H]43)c(C3CC3)n2)cc1OC(F)(F)F` (single isomer, unassigned) [Example 154b, 5-(2-cyclopropyl-1-(3-(4-(2-fluoroethyl)piperazin-1-yl)bicyclo[3.1.0]hexan-6-yl)-1H-imidazol-4-yl)-3-(trifluoromethoxy)pyridin-2-amine] had a pIC50 in test [1] of 6.22. The compound further showed a pKd in test [2] of 7.77.
Consider `CC(C)c1nc(-c2cnc(N)c(C(F)(F)F)c2)cn1[C@H]1[C@@H]2CC(N3CCN(CCF)CC3)C[C@@H]21` (single isomer, unassigned) [Example 155a, 5-(1-(3-(4-(2-fluoroethyl)piperazin-1-yl)bicyclo[3.1.0]hexan-6-yl)-2-isopropyl-1H-imidazol-4-yl)-3-(trifluoromethyl)pyridin-2-amine], for which, in test [1], the pIC50 is 5.93. In test [2], the pKd is 7.64.
`CC(C)c1nc(-c2cnc(N)c(C(F)(F)F)c2)cn1[C@H]1[C@@H]2CC(N3CCN(CCF)CC3)C[C@@H]21` (single isomer, unassigned) [Example 155b, 5-(1-(3-(4-(2-fluoroethyl)piperazin-1-yl)bicyclo[3.1.0]hexan-6-yl)-2-isopropyl-1H-imidazol-4-yl)-3-(trifluoromethyl)pyridin-2-amine] had a pIC50 in test [1] of 5.94. The same compound showed a pKd in test [2] of 8.35.
Compound `CC(C)c1nc(-c2cnc(N)c(OC(F)(F)F)c2)cn1[C@H]1[C@@H]2CC(N3CCN(CCF)CC3)C[C@@H]21` (single isomer, unassigned) [Example 156a, 5-(1-(3-(4-(2-fluoroethyl)piperazin-1-yl)bicyclo[3.1.0]hexan-6-yl)-2-isopropyl-1H-imidazol-4-yl)-3-(trifluoromethoxy)pyridin-2-amine] gave a pIC50 in test [1] of 6.13. The same compound gave a pKd in test [2] of 7.52.
In test [1], `CC(C)c1nc(-c2cnc(N)c(OC(F)(F)F)c2)cn1[C@H]1[C@@H]2CC(N3CCN(CCF)CC3)C[C@@H]21` (single isomer, unassigned) [Example 156b, 5-(1-(3-(4-(2-fluoroethyl)piperazin-1-yl)bicyclo[3.1.0]hexan-6-yl)-2-isopropyl-1H-imidazol-4-yl)-3-(trifluoromethoxy)pyridin-2-amine] had a pIC50 of 6.06. The compound also gave a pKd in test [2] of 7.96.
`CC(C)c1nc(-c2cnc(N)c(OC(F)(F)F)c2)cn1[C@H]1[C@@H]2CC(N3CCOC[C@@H]3C)C[C@@H]21` (single isomer, unassigned) [Example 157a] gave a pIC50 in test [1] of 6.05. Also, the negative-log Kd (pKd) in test [2] is 7.24.
As for `CC(C)c1nc(-c2cnc(N)c(OC(F)(F)F)c2)cn1[C@H]1[C@@H]2CC(N3CCOC[C@@H]3C)C[C@@H]21` (single isomer, unassigned) [Example 157b], in test [1], the pIC50 is 6.08. The compound also had a pKd in test [2] of 7.66.
As to `CC(C)Cc1nc(-c2cnc(N)c(OC(F)(F)F)c2)cn1[C@H]1[C@@H]2CC(N3CCN(CCF)CC3)C[C@@H]21` (single isomer, unassigned) [Example 159a, 5-(1-(3-(4-(2-fluoroethyl)piperazin-1-yl)bicyclo[3.1.0]hexan-6-yl)-2-isobutyl-1H-imidazol-4-yl)-3-(trifluoromethoxy)pyridin-2-amine], in test [1], the pIC50 is 6.23. In test [2], the pKd was 7.48.
`CC(C)Cc1nc(-c2cnc(N)c(OC(F)(F)F)c2)cn1[C@H]1[C@@H]2CC(N3CCN(CCF)CC3)C[C@@H]21` (single isomer, unassigned) [Example 159b, 5-(1-(3-(4-(2-fluoroethyl)piperazin-1-yl)bicyclo[3.1.0]hexan-6-yl)-2-isobutyl-1H-imidazol-4-yl)-3-(trifluoromethoxy)pyridin-2-amine] showed a pIC50 in test [1] of 5.81. For the same compound, the pKd in test [2] is 7.31.
On to `CC(C)Cc1nc(-c2cnc(N)c(C(F)(F)F)c2)cn1[C@H]1[C@@H]2CC(N3CCN(CCF)CC3)C[C@@H]21` (single isomer, unassigned) [Example 160a, 5-(1-(3-(4-(2-fluoroethyl)piperazin-1-yl)bicyclo[3.1.0]hexan-6-yl)-2-isobutyl-1H-imidazol-4-yl)-3-(trifluoromethyl)pyridin-2-amine], for which, in test [1], the pIC50 was 6.13. In test [2], this compound showed a pKd of 7.89.
As for `CC(C)Cc1nc(-c2cnc(N)c(C(F)(F)F)c2)cn1[C@H]1[C@@H]2CC(N3CCN(CCF)CC3)C[C@@H]21` (single isomer, unassigned) [Example 160b, 5-(1-(3-(4-(2-fluoroethyl)piperazin-1-yl)bicyclo[3.1.0]hexan-6-yl)-2-isobutyl-1H-imidazol-4-yl)-3-(trifluoromethyl)pyridin-2-amine], in test [1], the pIC50 is 6.11. Besides, the pKd in test [2] was 8.06.
